Assay results published in patent publication US10106508B2, “Quinazoline heterocyclic compound as EGFR kinase inhibitor and preparation and application thereof” (BEIJING SCITECH-MQ PHARMACEUTICALS LIMITED, priority 2015, dated 2018).

What was measured:
EGFR (WT) = EGFR (WT) (Homo sapiens (Human), UniProt P00533); assay: Kinase-Glo luminescent kinase assay, EGFR tyrosine kinase inhibitory activity (WT); type: biochemical; details: EGFR wild type
Method: (§1) Determination of the Compound Inhibitory Activity Against EGFR Kinase
(§2) The inhibitory activity of compounds in formula (I) and (II) were determined using Kinase-Glo luminescent kinase assay. The receptor tyrosine kinase EGFR was tested and Gefitinib, a known EGFR inhibitor, was chosen as the positive control compound. The method is detailed below:
(§3) The sample compounds were dissolved in DMSO and diluted it to 500 μM concentration with DMSO and transferred to a dose plate. The compounds were serially diluted with DMSO in 5 fold concentration. Then each concentration was diluted 10-fold with the reaction buffer to get a 10× final concentration. Transfer the compounds with concentrations ranging from 0.003 μM to 50 μM to EGFR assay plate to determine their kinase activity with a dose of 1 μL/well.
(§4) The positive control compound Gifitinib was dissolved in DMSO as 10 mM stock solution and diluted it to 100 μM concentration with DMSO. The control compound was serially diluted with DMSO in 5 fold concentration. Then each concentration was diluted 10-fold with the reaction buffer to get a 10× final concentration.
(§5) For the HPE (hundred percent effect: No kinase and no compound, but containing ATP, substrate and 1% DMSO) and ZPE (zero percent effect: No compound but containing kinase, ATP, substrate and 1% DMSO) wells, dilute 2 μL DMSO 10-fold with reaction buffer to obtain 10% DMSO solution. Then transfer it to the assay plat, 1 μL/well. The positive control wells contain kinase, ATP, substrate and positive control compound in different concentrations. The sample compound wells contain kinase, ATP, substrate and the compounds to be tested in different concentrations.
(§6) Preparation of the reagents in need: 4×ATP: dilute ATP 4 times with assay buffer to obtain a working solution; 4× substrate: dilute Poly ([…]: tyrosine) 4 times with assay buffer to obtain a working solution; 2.5×EGFR kinase: dilute EGFR kinase 2.5 times with assay buffer to obtain a working solution.
(§7) Kinase reaction: Add 10× compounds to the assay plate in a 384-well plate layout, 1 μL/well. For the HPE and ZPE wells, equal volume (1 μL/well) of 10% DMSO was added to the 384-well assay plate; Add 2.5×EGFR kinase into the assay plate in 384-well plate layout, 4 μL/well. For HPE and ZPE wells, an equal volume (4 μL/well) of assay buffer was added to the 384-well assay plate; Centrifuge the assay plate with 1000 rpm for 1 min to mix them; Pre-incubate the assay plate for 30 min at 30° C.; Mix equal volume of 4×ATP and 4× substrate to obtain 2×ATP-substrate mixture which serves as a reaction mixture for the determination of EGFR activity; Add 2×ATP-substrate mixture to the assay plate, 5 μL/well; Centrifuge the assay plate at 1000 rpm for 1 min to mix them; Incubate the assay plate for one hour at 30° C.; Add Kinase glo plus was to each well (10 μL/well), and then incubated the assay plate for 20 min at 27° C.; Read luminescence signal with Envision plate reader.

EGFR (T790M) = EGFR (T790M) (Homo sapiens (Human), UniProt P00533, T790M); assay: Kinase-Glo luminescent kinase assay, EGFR tyrosine kinase inhibitory activity (T790M); type: biochemical
Sequence of EGFR (T790M) (P00533 25-1210 T790M): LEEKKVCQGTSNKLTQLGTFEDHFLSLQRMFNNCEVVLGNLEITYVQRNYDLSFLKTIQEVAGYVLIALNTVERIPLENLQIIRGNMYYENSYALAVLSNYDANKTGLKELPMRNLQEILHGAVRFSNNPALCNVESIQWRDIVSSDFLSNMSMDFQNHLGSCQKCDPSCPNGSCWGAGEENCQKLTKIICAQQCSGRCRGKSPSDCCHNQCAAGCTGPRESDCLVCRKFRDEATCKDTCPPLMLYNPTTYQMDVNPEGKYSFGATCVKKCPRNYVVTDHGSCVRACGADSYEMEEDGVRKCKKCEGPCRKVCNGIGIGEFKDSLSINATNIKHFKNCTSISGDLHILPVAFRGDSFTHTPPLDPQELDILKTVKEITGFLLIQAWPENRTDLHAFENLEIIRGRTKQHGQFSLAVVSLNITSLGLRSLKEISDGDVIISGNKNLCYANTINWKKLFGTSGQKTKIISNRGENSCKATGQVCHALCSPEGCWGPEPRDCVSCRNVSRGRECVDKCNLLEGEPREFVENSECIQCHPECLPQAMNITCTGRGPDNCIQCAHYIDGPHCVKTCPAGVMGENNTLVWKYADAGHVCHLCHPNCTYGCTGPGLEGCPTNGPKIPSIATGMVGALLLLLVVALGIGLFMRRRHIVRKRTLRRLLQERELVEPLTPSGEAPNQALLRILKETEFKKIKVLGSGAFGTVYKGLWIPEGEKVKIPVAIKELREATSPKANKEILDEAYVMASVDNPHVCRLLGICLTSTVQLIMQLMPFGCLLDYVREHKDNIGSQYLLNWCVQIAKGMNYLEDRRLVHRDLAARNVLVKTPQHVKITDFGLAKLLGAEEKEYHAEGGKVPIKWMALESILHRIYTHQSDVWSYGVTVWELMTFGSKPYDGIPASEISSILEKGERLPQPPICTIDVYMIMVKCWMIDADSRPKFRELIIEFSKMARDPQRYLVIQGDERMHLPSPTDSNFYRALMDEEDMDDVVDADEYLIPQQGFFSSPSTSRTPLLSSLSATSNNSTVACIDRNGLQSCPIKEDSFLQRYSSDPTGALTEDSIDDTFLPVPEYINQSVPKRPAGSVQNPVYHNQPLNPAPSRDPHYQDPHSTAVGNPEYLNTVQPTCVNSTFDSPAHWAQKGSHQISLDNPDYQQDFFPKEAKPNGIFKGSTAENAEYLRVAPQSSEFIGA
Method: as §1, §2, §3, §4, §5, §6, §7

H358 cells = assay: Anti-proliferative activity, cell-counting kit-8 assay, H358; type: cell-based; details: CCK-8
Method: (§8) Cell Assay of EGFR Activity
(§9) The anti-proliferative activity was determined using cell-counting kit-8 assay (Dojindo, Japan). H358 and A549 cells lines were seeded at a density of 8000 cells/well and 3000 cells/well respectively in 96-well microtiter plates and were incubated at 37° C. overnight in a humidified incubator containing 5% CO2. Cells were dosed with compounds at final concentrations ranging from 0.025 to 80 μM in each well of the plate. Three groups were set up, including compound group to be tested, blank control group, positive control group (gefitinib).
(§10) The 96-well plate was incubated in cell incubator for 72 hours. The culture fluid was then removed and 100 μl/well of PBS buffer was added. 10 μl/well of CCK-8 solution was added and the assay plate was incubated in the cell incubator for 1 hour. Cell survival was determined by measuring the absorbance at 470 nm using a microplate reader. A calibration curve was prepared using the average data of the 4 wells for each concentration that contain the number of viable cells to determine the IC50 of the target compounds.

A549 cells = assay: Anti-proliferative activity, cell-counting kit-8 assay, A549; type: cell-based; details: CCK-8
Method: as §8, §9, §10

EGFR = EGFR (Homo sapiens (Human), UniProt P00533); details: molecular level; read-out: IC50 against EGFR activity; cited from earlier work
Sequence of EGFR (P00533 25-1210): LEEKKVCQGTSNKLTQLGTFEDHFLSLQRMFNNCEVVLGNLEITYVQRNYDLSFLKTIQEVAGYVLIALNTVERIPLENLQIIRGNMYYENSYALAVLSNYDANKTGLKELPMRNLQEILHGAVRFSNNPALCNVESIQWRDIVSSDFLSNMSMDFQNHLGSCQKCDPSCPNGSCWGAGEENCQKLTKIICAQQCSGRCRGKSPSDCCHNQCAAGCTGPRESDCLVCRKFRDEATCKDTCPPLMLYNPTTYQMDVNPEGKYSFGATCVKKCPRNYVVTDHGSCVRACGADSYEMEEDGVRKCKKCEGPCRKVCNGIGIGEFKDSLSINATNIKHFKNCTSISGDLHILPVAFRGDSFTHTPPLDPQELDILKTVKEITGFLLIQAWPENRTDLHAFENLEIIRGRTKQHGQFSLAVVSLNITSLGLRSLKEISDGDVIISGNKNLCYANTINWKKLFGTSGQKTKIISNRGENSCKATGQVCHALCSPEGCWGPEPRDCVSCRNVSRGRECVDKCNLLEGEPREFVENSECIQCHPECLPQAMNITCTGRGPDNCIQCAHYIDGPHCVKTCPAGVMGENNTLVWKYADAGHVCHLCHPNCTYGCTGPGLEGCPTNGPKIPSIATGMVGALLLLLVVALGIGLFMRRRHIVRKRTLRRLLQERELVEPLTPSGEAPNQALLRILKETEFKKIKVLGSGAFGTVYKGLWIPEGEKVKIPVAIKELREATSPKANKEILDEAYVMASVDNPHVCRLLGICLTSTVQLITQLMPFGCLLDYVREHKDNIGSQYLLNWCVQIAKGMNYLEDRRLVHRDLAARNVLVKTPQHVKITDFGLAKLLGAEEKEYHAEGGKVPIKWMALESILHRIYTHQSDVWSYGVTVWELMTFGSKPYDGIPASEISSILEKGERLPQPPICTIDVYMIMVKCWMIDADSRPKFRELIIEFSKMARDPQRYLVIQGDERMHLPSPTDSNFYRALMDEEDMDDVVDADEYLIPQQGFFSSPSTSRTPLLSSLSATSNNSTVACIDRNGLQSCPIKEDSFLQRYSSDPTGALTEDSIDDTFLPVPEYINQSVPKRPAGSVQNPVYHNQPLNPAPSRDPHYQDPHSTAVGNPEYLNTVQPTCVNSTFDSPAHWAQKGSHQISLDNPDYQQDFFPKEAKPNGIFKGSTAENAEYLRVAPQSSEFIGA

remaining 81 kinase = details: screening of 85 kinases; selectively inhibits EGFR and 3 other mutants; cited from earlier work
[1] = in vivo; cited from earlier work

Sequence of EGFR (WT) (P00533 25-1210): as above

Row | SMILES | IC50 (EGFR (WT)) | IC50 (EGFR (T790M)) | IC50 (H358 cells; Homo sapiens, NCI-H358, 72 h) | IC50 (A549 cells; Homo sapiens, A549, 72 h) | IC50 (EGFR) | effect on the remaining 81 kinase (remaining 81 kinase) | oral bioavailability [1] | IC50 (H358 cells; 72 hours) | IC50 (A549 cells; 72 hours)
1 | C#Cc1cccc(Nc2ncnc3cc(OC(C)C)c4c(c23)OCCO4)c1 [Compound I-8, N-(3-Ethynylphenyl)-5-isopropoxy-2,3-dihydro-[1,4]dioxino[2,3-f]quinazolin-10-amine] | < 0.05 µM | < 0.05 µM | 5.54 µM | 6.08 µM | – | – | – | – | –
2 | CCOc1cc2ncnc(Nc3cccc(OC)c3)c2c2c1OCCO2 [Compound I-36, 5-Ethoxy-N-(3-methoxyphenyl)-2,3-dihydro-[1,4]dioxino[2,3-f]quinazolin-10-amine] | < 0.05 µM | < 0.05 µM | 7.41 µM | 12 µM | – | – | – | – | –
3 | C#Cc1cccc(Nc2ncnc3cc(OC4CCOC4)c4c(c23)OCCO4)c1 (stereo not shown) [Compound I-24, N-(3-Ethynylphenyl)-5-(tetrahydrofuran-3-yloxy)-23-dihydro-[1,4]dioxino[2,3-f]quinazolin-10-amine] | < 0.05 µM | < 0.3 µM | 8.58 µM | 9.69 µM | – | – | – | – | –
4 | COCCOc1cc2ncnc(Nc3ccc(F)c(Cl)c3)c2c2c1OCCO2 [Compound I-30, N-(3-Chloro-4-fluorophenyl)-5-(2-methoxyethoxy)-2,3-dihydro-[1,4]dioxino[2,3-f]quinazolin-10-amine] | < 0.05 µM | < 0.05 µM | 5.93 µM | 13.9 µM | – | – | – | – | –
5 | COCCOc1cc2ncnc(Nc3cccc(OC)c3)c2c2c1OCCO2 [Compound I-33, 5-(2-Methoxyethoxy)-N-(3-methoxyphenyl)-2,3-dihydro-[1,4]dioxino[2,3-f]quinazolin-10-amine] | < 0.2 µM | < 1 µM | 9.64 µM | 12.1 µM | – | – | – | – | –
6 | Fc1cc(Nc2ncnc3cc(OC4CCOCC4)c4c(c23)OCCO4)ccc1Cl [Compound I-22, N-(4-Chloro-3-fluorophenyl)-5-(tetrahydro-2H-pyran-4-yloxy)-2,3-dihydro-[1,4]dioxino[2,3-f]-quinazolin-10-amine] | < 0.1 µM | < 1 µM | > 20 µM | > 20 µM | – | – | – | – | –
7 | CC(C)Oc1cc2ncnc(Nc3ccc(F)c(Cl)c3)c2c2c1OCCO2 [Compound I-7, N-(3-Chloro-4-fluorophenyl)-5-isopropoxy-2,3-dihydro-[1,4]dioxino[2,3-f]quinazolin-10-amine] | < 0.05 µM | < 0.05 µM | 6.92 µM | 11.6 µM | – | – | – | – | –
8 | Fc1cc(Nc2ncnc3cc(OC4CCOC4)c4c(c23)OCCO4)ccc1Cl (stereo not shown) [Compound I-23, N-(4-Chloro-3-fluorophenyl)-5-(tetrahydrofuran-3-yloxy)-2,3-dihydro-[1,4]dioxino[2,3-f]quinazolin-10-amine] | < 0.05 µM | < 0.1 µM | 13 µM | 15.1 µM | – | – | – | – | –
9 | C#Cc1cccc(Nc2ncnc3cc4c(cc23)OCCOCCOCCO4)c1 [icotinib, Icotinib] | – | – | – | – | 5 µM | no significant effect | – | – | –
10 | CCOc1cc2ncnc(Nc3ccc(C)cc3)c2c2c1OCCO2 [Compound I-39, 5-Ethoxy-N-p-tolyl-2,3-dihydro-[1,4]dioxino[2,3-f]quinazolin-10-amine] | < 0.05 µM | < 0.1 µM | 6.1 µM | 10.2 µM | – | – | – | – | –
11 | C#Cc1cccc(Nc2ncnc3cc(OC4CCOCC4)c4c(c23)OCCO4)c1 [Compound I-21, N-(3-Ethynylphenyl)-5-(tetrahydro-2H-pyran-4-yloxy)-2,3-dihydro-[1,4]dioxino[2,3-f]quinazolin-10-amine] | < 0.1 µM | < 1 µM | 1.47 µM | 6.42 µM | – | – | – | – | –
12 | C#Cc1cccc(Nc2ncnc3cc(OCC4CCCO4)c4c(c23)OCCO4)c1 (stereo not shown) [Compound I-41, N-(3-Ethynylphenyl)-5-((tetrahydrofuran-2-yl)methoxy)-2,3-dihydro-[1,4]dioxino[2,3-f]quinazolin-10-amine] | < 0.05 µM | < 0.1 µM | 9.51 µM | 11.5 µM | – | – | – | – | –
13 | CCOC(C)Oc1cc2ncnc(Nc3ccc(F)c([N+](=O)[O-])c3)c2c2c1OCCO2 (stereo not shown) [Compound I-16, 5-(1-Ethoxyethoxy)-N-(4-fluoro-3-nitrophenyl)-2,3-dihydro-[1,4]dioxino[2,3-f]quinazolin-10-amine] | < 0.3 µM | < 0.3 µM | 17.5 µM | 17.5 µM | – | – | – | – | –
14 | CCOc1cc2ncnc(Nc3ccc(C)c(Cl)c3)c2c2c1OCCO2 [Compound I-37, N-(3-Chloro-4-methylphenyl)-5-ethoxy-2,3-dihydro-[1,4]dioxino[2,3-f]quinazolin-10-amine] | < 0.05 µM | < 0.05 µM | 11.6 µM | 12.1 µM | – | – | – | – | –
15 | O=C1COc2cc3ncnc(Nc4ccc(F)c(Cl)c4)c3cc2N1CCCN1CCOCC1 [II-2, 4-((3-Chloro-4-fluorophenyl)amino)-6-(3-morpholinopropyl)-6H-[1,4]oxazino[3,2-g]quinazolin-7(8H)-one] | < 0.2 µM | < 1 µM | 13.5 µM | 5.58 µM | – | – | – | – | –
16 | C#Cc1cccc(Nc2ncnc3cc(OCCOC)c(OCCOC)cc23)c1 [erlotinib, Erlotinib] | – | – | – | – | – | – | 80% | – | –
17 | C#Cc1cccc(Nc2ncnc3cc(OCC)c4c(c23)OCCO4)c1 [Compound I-35, 5-Ethoxy-N-(3-ethynylphenyl)-2,3-dihydro-[1,4]dioxino[2,3-f]quinazolin-10-amine] | < 0.05 µM | < 0.05 µM | 8.89 µM | 10.5 µM | – | – | – | – | –
18 | O=C1COc2cc3ncnc(Nc4ccc(F)c(Cl)c4)c3cc2N1CCCN1CCOCC1 [II-1, 4-((3-Chloro-4-fluorophenyl)amino)-6-(3-morpholinopropyl)-6H-[1,4]oxazino[3,2-g]quinazolin-7(8H)-one] | < 0.05 µM | < 0.3 µM | – | – | – | – | – | 13.5 µM | 7.51 µM
19 | COCC(C)Oc1cc2ncnc(Nc3ccc(F)c(Cl)c3)c2c2c1OCCO2 (stereo not shown) [Compound I-25, N-(3-Chloro-4-fluorophenyl)-5-(1-methoxypropan-2-yloxy)-2,3-dihydro-[1,4]dioxino[2,3-H]quinazolin-10-amine] | – | – | 10.6 µM | 10.4 µM | – | – | – | – | –
20 | COc1ccc(Nc2ncnc3cc(OC(C)C)c4c(c23)OCCO4)cc1[N+](=O)[O-] [Compound I-1, 5-Isopropoxy-N-(4-methoxy-3-nitrophenyl)-2,3-dihydro-[1,4]dioxino[2,3-f]quinazolin-10-amine] | < 1 µM | < 1 µM | – | – | – | – | – | – | –
21 | Cc1ccc(Nc2ncnc3cc(OC(C)C)c4c(c23)OCCO4)cc1[N+](=O)[O-] [Compound I-3, 5-Isopropoxy-N-(4-methyl-3-nitrophenyl)-2,3-dihydro-[1,4]dioxino[2,3-f]quinazolin-10-amine] | < 0.2 µM | < 1 µM | – | – | – | – | – | – | –
